Measurements published in US20230079819A1, “COMPOUNDS AND USES THEREOF” (Foghorn Therapeutics Inc., priority 2019, published 2023).

Legend:
BRM = target: T1, BRM (Homo sapiens, UniProt P51531); assay: ATPase catalytic activity of BRM, ADP-Glo in vitro biochemical assay; details: ATPase catalytic activity, 30 nM BRM, 400 μM ATP, read-out: BRM IP50
T1 construct: made in house; host or cells: High Five insect cells

BRG-1 = target: T2, BRG-1 (Homo sapiens, UniProt P51532); assay: ATPase catalytic activity of BRG-1, ADP-Glo in vitro biochemical assay; details: ATPase catalytic activity, 30 nM BRG-1, 400 μM ATP, read-out: BRG1 IP50
T2 construct: made in house; host or cells: High Five insect cells
T2 sequence (P51532 whole entry): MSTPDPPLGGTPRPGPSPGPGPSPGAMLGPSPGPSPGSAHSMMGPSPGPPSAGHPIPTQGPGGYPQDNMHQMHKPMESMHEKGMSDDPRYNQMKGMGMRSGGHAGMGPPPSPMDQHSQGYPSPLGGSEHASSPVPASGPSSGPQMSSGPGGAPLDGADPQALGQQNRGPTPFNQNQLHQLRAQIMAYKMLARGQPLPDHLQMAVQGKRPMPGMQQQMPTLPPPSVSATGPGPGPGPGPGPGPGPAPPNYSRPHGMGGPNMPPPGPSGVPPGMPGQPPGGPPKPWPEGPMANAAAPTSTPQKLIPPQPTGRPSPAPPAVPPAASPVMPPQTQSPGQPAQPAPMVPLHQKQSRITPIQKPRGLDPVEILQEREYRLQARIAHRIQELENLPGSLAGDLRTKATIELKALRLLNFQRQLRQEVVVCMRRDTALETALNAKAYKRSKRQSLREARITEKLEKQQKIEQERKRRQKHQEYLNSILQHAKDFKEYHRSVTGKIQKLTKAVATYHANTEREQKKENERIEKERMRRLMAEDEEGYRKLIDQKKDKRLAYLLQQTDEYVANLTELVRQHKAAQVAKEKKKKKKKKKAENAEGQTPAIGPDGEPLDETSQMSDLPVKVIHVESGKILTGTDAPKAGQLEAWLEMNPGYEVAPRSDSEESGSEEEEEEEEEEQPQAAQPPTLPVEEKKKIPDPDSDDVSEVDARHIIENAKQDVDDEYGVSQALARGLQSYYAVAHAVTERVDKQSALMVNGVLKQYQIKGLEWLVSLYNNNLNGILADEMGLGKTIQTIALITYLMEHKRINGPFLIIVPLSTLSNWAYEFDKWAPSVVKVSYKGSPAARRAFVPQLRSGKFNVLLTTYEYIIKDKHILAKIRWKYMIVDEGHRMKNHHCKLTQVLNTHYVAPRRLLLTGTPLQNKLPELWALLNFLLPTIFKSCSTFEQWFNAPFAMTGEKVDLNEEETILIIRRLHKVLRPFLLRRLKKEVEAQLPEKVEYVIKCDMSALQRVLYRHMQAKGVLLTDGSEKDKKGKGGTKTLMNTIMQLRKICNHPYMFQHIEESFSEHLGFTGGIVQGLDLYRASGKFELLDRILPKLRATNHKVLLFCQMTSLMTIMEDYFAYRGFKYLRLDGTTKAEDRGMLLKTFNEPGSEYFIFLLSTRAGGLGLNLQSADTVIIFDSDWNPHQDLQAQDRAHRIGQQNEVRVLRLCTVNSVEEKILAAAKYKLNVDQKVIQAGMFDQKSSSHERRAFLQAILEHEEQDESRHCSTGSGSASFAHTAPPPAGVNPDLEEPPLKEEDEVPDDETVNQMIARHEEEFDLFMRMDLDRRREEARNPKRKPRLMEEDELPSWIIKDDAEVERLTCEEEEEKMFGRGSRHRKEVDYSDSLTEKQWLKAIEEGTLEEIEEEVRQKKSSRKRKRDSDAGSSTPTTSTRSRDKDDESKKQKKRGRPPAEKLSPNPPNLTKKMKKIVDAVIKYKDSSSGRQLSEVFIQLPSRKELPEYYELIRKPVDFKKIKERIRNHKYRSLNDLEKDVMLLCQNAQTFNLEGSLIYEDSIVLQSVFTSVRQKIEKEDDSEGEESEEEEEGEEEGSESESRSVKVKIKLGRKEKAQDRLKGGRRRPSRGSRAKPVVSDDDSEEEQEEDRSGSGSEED

T1 sequence (P51531 whole entry): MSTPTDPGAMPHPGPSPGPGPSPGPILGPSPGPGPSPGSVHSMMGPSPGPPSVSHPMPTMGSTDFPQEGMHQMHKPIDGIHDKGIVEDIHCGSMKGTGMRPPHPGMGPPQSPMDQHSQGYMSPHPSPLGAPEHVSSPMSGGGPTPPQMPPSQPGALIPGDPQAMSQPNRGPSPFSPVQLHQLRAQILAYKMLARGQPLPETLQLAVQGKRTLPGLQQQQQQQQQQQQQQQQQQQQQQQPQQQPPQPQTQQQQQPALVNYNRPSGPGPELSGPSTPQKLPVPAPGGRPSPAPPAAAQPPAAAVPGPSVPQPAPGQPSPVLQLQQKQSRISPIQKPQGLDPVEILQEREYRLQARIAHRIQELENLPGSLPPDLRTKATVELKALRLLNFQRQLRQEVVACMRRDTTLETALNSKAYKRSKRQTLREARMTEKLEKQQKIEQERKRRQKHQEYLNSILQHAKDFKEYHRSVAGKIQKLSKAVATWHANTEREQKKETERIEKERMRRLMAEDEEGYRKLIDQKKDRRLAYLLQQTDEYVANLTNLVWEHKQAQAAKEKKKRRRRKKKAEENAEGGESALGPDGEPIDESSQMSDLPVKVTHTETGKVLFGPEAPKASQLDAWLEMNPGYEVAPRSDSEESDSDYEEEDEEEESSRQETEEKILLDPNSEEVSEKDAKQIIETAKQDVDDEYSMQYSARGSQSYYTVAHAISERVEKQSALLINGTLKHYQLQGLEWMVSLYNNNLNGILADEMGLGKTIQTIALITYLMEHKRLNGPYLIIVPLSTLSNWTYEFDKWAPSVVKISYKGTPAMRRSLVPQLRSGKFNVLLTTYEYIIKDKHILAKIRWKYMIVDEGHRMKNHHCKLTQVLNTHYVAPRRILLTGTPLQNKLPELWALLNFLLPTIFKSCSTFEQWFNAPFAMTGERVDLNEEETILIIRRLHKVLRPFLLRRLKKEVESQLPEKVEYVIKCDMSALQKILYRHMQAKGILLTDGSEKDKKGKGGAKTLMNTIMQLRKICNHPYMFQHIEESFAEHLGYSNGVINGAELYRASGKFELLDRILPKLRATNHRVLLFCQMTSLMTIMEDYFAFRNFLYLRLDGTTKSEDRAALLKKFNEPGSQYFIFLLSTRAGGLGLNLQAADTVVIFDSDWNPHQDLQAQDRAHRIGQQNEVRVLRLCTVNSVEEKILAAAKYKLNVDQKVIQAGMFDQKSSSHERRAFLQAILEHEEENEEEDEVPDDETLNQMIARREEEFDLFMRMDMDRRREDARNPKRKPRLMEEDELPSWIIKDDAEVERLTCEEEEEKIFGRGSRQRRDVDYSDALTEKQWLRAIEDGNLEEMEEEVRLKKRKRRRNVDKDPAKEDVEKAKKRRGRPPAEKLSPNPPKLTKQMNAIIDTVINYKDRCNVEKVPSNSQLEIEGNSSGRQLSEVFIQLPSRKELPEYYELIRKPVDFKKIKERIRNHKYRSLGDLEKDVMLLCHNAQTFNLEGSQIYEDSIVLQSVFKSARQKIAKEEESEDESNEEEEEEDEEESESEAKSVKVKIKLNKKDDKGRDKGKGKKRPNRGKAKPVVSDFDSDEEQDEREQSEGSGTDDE

IC50 (BRM) [nM]	IC50 (BRG-1) [nM]	SMILES
> 10	> 10	CS(=O)(=O)n1ccc(C(=O)NCC(=O)Nc2nc(-c3ccc4c(c3)OCO4)cs2)c1 [Compound 574]
> 10	> 10	CS(=O)(=O)n1ccc(C(=O)NCC(=O)Nc2nc(-c3cccc([C@@H]4CC4(F)F)c3)cs2)c1 [Compound 575]
< 10	> 10	CS(=O)(=O)n1ccc(C(=O)NCC(=O)Nc2nc(-c3cccc([C@H]4CC4(F)F)c3)cs2)c1 [Compound 576]
> 10	> 100	COC(=O)N1CCC[C@@H](c2csc(NC(=O)CNC(=O)c3ccn(S(C)(=O)=O)c3)n2)C1 [Compound 578]
> 100	> 100	COC(=O)N1CCC[C@H](c2csc(NC(=O)CNC(=O)c3ccn(S(C)(=O)=O)c3)n2)C1 [Compound 579]
> 100	> 100	COC(=O)N1CCC[C@@H](c2csc(NC(=O)CNC(=O)c3ccn(C(C)(C)C)c3)n2)C1 [Compound 580]
> 100	> 100	COC(=O)N1CCC[C@H](c2csc(NC(=O)CNC(=O)c3ccn(C(C)(C)C)c3)n2)C1 [Compound 581]
> 10	> 10	COC[C@H](NC(=O)c1ccn(C(C)(C)C)c1)C(=O)Nc1nc(-c2ccc3ccn(C(F)F)c(=O)c3c2)cs1 [Compound 583]
< 10	< 10	COC[C@H](NC(=O)c1ccn(C(C)(C)C#N)c1)C(=O)Nc1nc(-c2ccc3ccn(C)c(=O)c3c2)cs1 [Compound 584]
< 10	> 10	CS(=O)(=O)n1ccc(C(=O)NCC(=O)Nc2nc(-c3cccc(N4CC[C@H](C(F)F)C4)c3)cs2)c1 [Compound 585]
> 10	> 10	CS(=O)(=O)n1ccc(C(=O)NCC(=O)Nc2nc(-c3cccc(N4CC[C@@H](C(F)F)C4)c3)cs2)c1 [Compound 586]
> 10	> 100	C[C@H](NC(=O)c1ccn(C2(C#N)CC2)c1)C(=O)Nc1nc(-c2cccc(-c3ccn(C)n3)c2)cs1 [Compound 588]
> 10	> 100	C[C@H](NC(=O)c1ccn(C2(C)COC2)c1)C(=O)Nc1nc(-c2cccc(-c3ccn(C)n3)c2)cs1 [Compound 589]
> 10	> 10	CN1CCOc2ccc(-c3csc(NC(=O)CNC(=O)c4ccn(C(C)(C)C#N)c4)n3)cc21 [Compound 590]

Further lines, the compound ahead of its results:

SMILES	IC50 (BRM) [nM]	IC50 (BRG-1) [nM]
COC[C@H](NC(=O)c1ccn(C(C)(C)C)c1)C(=O)Nc1nc(-c2cc(F)c3ccn(C)c(=O)c3c2)cs1 [Compound 563]	< 10	< 10
COC[C@H](NC(=O)c1ccn(C2(C)COC2)c1)C(=O)Nc1nc(-c2cc(F)c3ccn(C)c(=O)c3c2)cs1 [Compound 564]	< 10	< 10
CN1CCc2c(F)ccc(-c3csc(NC(=O)CNC(=O)c4ccn(S(C)(=O)=O)c4)n3)c21 [Compound 565]	> 10	> 10
COCC[C@H](NC(=O)c1ccn(C(C)(C)C)c1)C(=O)Nc1nc(-c2ccc3ccn(C)c(=O)c3c2)cs1 [Compound 567]	> 10	> 10
COC[C@H](NC(=O)c1ccn(C2(C#N)CC2)c1)C(=O)Nc1nc(-c2cccc(-c3ccn(C)n3)c2)cs1 [Compound 568]	> 10	> 10
CN1CCc2c(F)cc(-c3csc(NC(=O)CNC(=O)c4ccn(S(C)(=O)=O)c4)n3)cc21 [Compound 569]	< 10	< 10
CC(C)(C#N)n1ccc(C(=O)NCC(=O)Nc2nc(-c3cc(F)c4c(c3)OCC4)cs2)c1 [Compound 571]	< 10	> 10
COC[C@H](NC(=O)c1ccn(C2(C)COC2)c1)C(=O)Nc1nc(-c2cccc(-c3ccn(C)n3)c2)cs1 [Compound 572]	> 10	> 10
COC[C@H](NC(=O)c1ccn(S(C)(=O)=O)c1)C(=O)Nc1nc(-c2cccc(N3CCC3)c2F)cs1 [Compound 573]	> 10	> 10
